Experimental data reported in US10449348B2, “Devices and methods for enhancing the topical application of a benefit agent” (Johnson & Johnson Consumer Inc., priority 2015, dated 2019).

Experiment: In vitro skin permeation study, Franz diffusion cell, passive diffusion or sonophoresis
Format: in vitro ADME, human
Text: The experimental setup to run sonophoresis (ultrasound) studies with Franz cell diffusion cells consisted of a custom-built universal generator capable of driving ultrasonic transducers in the 20 kHz-2 MHz range with electronic power up to 60 W (Voltage+/−30V, Current: 2 A, duty cycle 50%) with a square waveform. The real power delivered to the transducer depended on the specific experimental conditions and is specified for each experiment. The driving waveform was delivered to the transducer through a coaxial cable having a BNC connector at one end and a custom non-coaxial connector at the transducer end.
The transducer was piezoelectric and had either a disk shaped form (either 20 or 25 mm in diameter) or a rectangular shape 10×20 mm^2). The thickness of the transducer depended on its fundamental frequency being inversely proportional with it. In order to prevent the liquid or the gel from perturbing the electrical connection, each transducer was encapsulated in a plastic case leaving only one side of the transducer exposed to the topical composition. The case was made out of a rigid plastic and the transducers were sealed with silicone adhesive to enable them to oscilalte more or less freely. The case also enabled the electrical connections to be isolated from the topical composition.
For sonophoresis experiments where the ultrasonic wave energy was delivered perpendicular to the skin, disk-shaped transducers were used in the encapsulation setup described above. For the angled ultrasound application the case encapsulating the ultrasonic transducer was assembled in a hinged configuration, enabling angles between 15 and 90 degrees (perpendicular). Note: an angle of 0 degrees would send the ultrasonic wave parallel with the skin surface.
In vitro skin permeation studies on 5% Ibuprofen gel compositions without ultrasound (passive diffusion), or facilitated by the application of ultrasound (sonophoresis), through human cadaver skin were performed as follows:
A skin penetration study evaluated the penetration of ibuprofen through the human skin for the inventive sample prepared as disclosed in Example 1. A commercial ibuprofen gel product, IBULEVE Ibuprofen Gel (by DDD ltd, Watford, Herts, WD18 7JJ, UK) was used as a benchmark, which contains 5% W/W ibuprofen, also IMS (Industrial Methylated Spirits), carbomer, propylene glycol, diethylamine and purified water according to the product label on its package. A well-known Franz diffusion cell method (taught in US20020006418 A1 which is hereby incorporated by reference) was used. […] A magnetic stirrer bar was added in the […]. The liquid receptor was filled with Phosphate-buffered saline (PBS) solution. Air bubbles in the […] were removed. The system was thermostated at 37° C. above a magnetic stirrer to ensure the homogeneity of the liquid receptor during the experiment. A human cadaver skin sample from a commercial tissue bank (Ohio Valley Tissue and Skin Center, Cincinnati, Ohio, dermatomed to approximately 0.4 mm) was cut to fit the glass diffusion cell and the skin was mounted on the Franz cell.
For the diffusion cells designated to be tested for passive diffusion, a test gel sample of 0.2 ml was applied on the skin surface. For the diffusion cells designated to test for sonophoresis, additional test sample (2-5 ml) was added in order to assure the entire, or at least a large portion, of the ultrasonic transducer tip was immersed by the test gel during the ultrasound treatment. The excess gel was promptly removed from the donor cell after the ultrasound treatment so that the remaining test gel was approximately 0.2 ml.
Ultrasound treatments were carried out with the following test conditions: • a) Conventional ultrasound treatment with 90 degree angle (°) between the ultrasound direction and the skin surface; • b) Angled Ultrasound treatment with less than 90 degree angle between the ultrasound direction and the skin surface. […]

## CC(C)Cc1ccc(C(C)C(=O)O)cc1 (stereo not shown) [ibuprofen]
15 degree UT sonophoresis vs without ultrasound, 6th hour
  permeation enhancement factor: approximately 3.0 fold
15 degree UT sonophoresis vs without ultrasound, 24th hour
  permeation enhancement factor: approximately 3.0 fold
15 degree ultrasound treatment
  ibuprofen permeation through the human skin versus no ultrasound: significantly enhanced
45 degree angled sonophoresis
  ibuprofen permeation through the human skin versus no ultrasound: significantly enhanced
60 degree UT sonophoresis vs without ultrasound, 6th hour
  permeation enhancement factor: approximately 2.9 fold
60 degree UT sonophoresis vs without ultrasound, 24th hour
  permeation enhancement factor: ~2.0 fold
60 degree angled sonophoresis
  ibuprofen permeation through the human skin versus no ultrasound: significantly enhanced
90 degree UT sonophoresis vs without ultrasound, 6th hour
  permeation enhancement factor: approximately 2.3 fold
90 degree UT sonophoresis vs without ultrasound, 24th hour
  permeation enhancement factor: ~2.0 fold
90 degree ultrasound treatment
  ibuprofen permeation through the human skin versus no ultrasound: significantly enhanced
